From US10669227B2 (THE RESEARCH FOUNDATION OF STATE UNIVERSITY OF NEW YORK, priority 2009, dated 2020)
“Also recorded” adds a separate entry of the source.

What was measured:
MMP-2 = test: Diabetic rat, gingiva gelatinase by gelatin zymography (MMP-2); format: in vivo; details: diabetic rats, oral daily, 3 weeks
Description: (§1) At the end of the treatment protocol, the rats were sacrificed, blood samples were collected, and whole skin (except over limbs) and qingiva were dissected (the skin, because of ample quantities of tissue were analyzed for each rat separately; the gingiva, because of the tiny amounts that could be harvested per rat, were pooled for each experimental group, as prescribed previously for tetracycline studies (30). In addition, the jaw bones were collected, defleshed, and bone loss around the teeth analyzed morphometrically as described previously (42, 43).
(§2) This appearance of MMP-9 only in the gingiva (FIG. 10), but not the skin (FIG. 12), of the diabetic rats is likely the result of the oral bacteria inducing inflammation in the gingiva of these immune-suppressed UD rats, whereas the skin is not exposed to this onslaught of bacteria particularly the anaerobic gram-negative bacteria in the mouth that cause periodontal and gingival inflammation.

IL-1β = test: Inhibition of IL-1β production by LPS-stimulated monocytes; format: cell-based; details: Homo sapiens, Monocyte, 18 h, read-out: % Inhibition of IL-1β produced by stimulated Monocytes with LPS @ 18 h
Description: (§3) Briefly, human peripheral blood monocytes (HMs) were isolated from a leukocyte concentrate by density gradient centrifugation (Lymphoprep) and the isolated HMs cultured (2 h, 37° C.) to remove non-adherent cells. The adherent HMs wore cultured for 18 h (1×10^6 cells/well, 24-well plates)±endotoxin (LPS)±different compounds dissolved in DMSO (the final concentration of DMSO in the RPMI serum-free culture media with Pen./Strep. antibiotics was no greater than 0.5%). After incubation, the proinflammatory cytokines, TNFα, […], MCP-1 and IL-6 were measured in the conditioned media by ELISA and cytotoxicity was assessed by measuring the absorbance (490 nm) of formazan produced by reduction of MTS. The HMs alone±0.1-0.5% DMSO produced minimal levels of these pro-inflammatory cytokines. However, addition of 100 ng/ml or 10 μg/ml of LPS both dramatically stimulated cytokine production.

IL-6 = test: Inhibition of IL-6 production by LPS-stimulated monocytes; format: cell-based; details: Homo sapiens, Monocyte, 18 h, read-out: % Inhibition of IL-6 produced by stimulated Monocytes with LPS @ 18 h
Description: as §3

[1] = test system: p38 MAP kinase activation; test: p38 MAP kinase activation, preliminary studies; format: cell-based
caspase-3 activity = test: Doxorubicin mediated caspase-3 activity; format: cell-based, rat; details: 10 μM, doxorubicin 500 nM, any time point
Description: Neonatal rat ventricular myocytes, serum starved for 24 h, were treated with the inhibitors 1 h prior to the addition of 500 nM of doxorubicin (Sigma). At the indicated time points cells were washed with ice-cold phosphate buffered saline and lysed using RIPA buffer (Pierce) containing protease and phosphatase inhibitors (Sigma). Caspase-3 activity in the cell lysates was measured by incubation with 7-amino-4-trifluoromethyl coumarin (Enzo).

TNF-α = test: Inhibition of TNF-α production by LPS-stimulated monocytes; format: cell-based, human
Description: as §3
(§4) The cytokine levels were measured by Luminex multiplex, a method that allows the simultaneous measurement of different biological markers.

human monocytes = test: Cytotoxicity in human monocytes (MTS); format: cell-based
Description: as §3, with “The adherent HMs wore cultured for 18 h (1×10^6 cells/well, 24-well plates)±endotoxin (LPS)±different compounds dissolved in DMSO (the final concentration of DMSO in the RPMI serum-free culture media with Pen./Strep. antibiotics was no greater than 0.5%).” left out

[2] = target: MMP-9 (92 kDa gelatinase) (Rattus norvegicus (Rat), UniProt P50282); test: Diabetic rat, plasma gelatinase by gelatin zymography (MMP-9); format: in vivo; details: diabetic rats, 100 mg/kg oral once/day, 7 days
[3] = Type I diabetic rat model, 1-week oral treatment: glucose, adverse events, serum level; format: in vivo; details: diabetic rats
Source text: The purpose of the following was to establish an in vivo model of excessive collagen degradation to be used to test efficacy of the compounds of the subject invention. Male Sprague-Dawley rats (typically 300-400 gms of body weight), specific viral antibody free, were ordered from Charles River. Following general anesthesia via isoflurane anesthetic inhalation, diabetes was induced by an I.V. administration of streptozotocin (STZ) (50*mg/kg body weight) (Sigma Chemical Co., St Louis, Mo., USA) diluted in 0.9% citrated saline (pH 4.5), after 12 hours of fasting. After the streptozotocin injection, the animals were given free access to water and food. […] In this test, the test-paper color changes to dark brown which indicates glycosuria.
(§5) The latter assays were carried out using Western blot analysis with monoclonal antibodies to MMP-8.

[4] = Solubility in aqueous solutions; format: physicochemical; details: comparative
[5] = test system: neonatal rat ventricular myocytes; test: Hydrogen peroxide induced LDH release; format: cell-based; details: 10 μM, H2O2 100 μM, 24 h
Description: Neonatal rat ventricular myocytes, serum starved for 24 h, were treated with the inhibitors 1 h prior to the addition of 100 μM of hydrogen peroxide (Sigma). LDH release in the conditioned media was quantified using CytoTox-ONE Homogeneous Membrane Integrity Assay reagent (Promega) at the indicated time points.

collagenase-2 (MMP-8) = collagenase-2 (MMP-8) (Rattus norvegicus (Rat), UniProt O88766); test: Diabetic rat, MMP-8 in skin extracts by Western blot; format: in vivo; details: diabetic rats, 100 mg/kg oral once/day, 7 days
Description: as §5

MMP-9 = MMP-9 (Rattus norvegicus (Rat), UniProt P50282); test: Diabetic rat, gingiva gelatinase by gelatin zymography (MMP-9); format: in vivo; details: diabetic rats, 100 and 500 mg/kg oral daily, 3 weeks
Description: as §1, §2

MCP-1 = test: Inhibition of MCP-1 production by LPS-stimulated monocytes; format: cell-based, human
Description: as §3, §4

[6] = target: MMP-9 (human leukocyte gelatinase) (Homo sapiens (Human), UniProt P14780); test: MMP-9 inhibition in vitro, octapeptide substrate, HPLC; format: biochemical; details: read-out: Maximum Inhibition At 100 μM compound (MMP-9)
MMP-9 (human leukocyte gelatinase), sequence (P14780 94-707): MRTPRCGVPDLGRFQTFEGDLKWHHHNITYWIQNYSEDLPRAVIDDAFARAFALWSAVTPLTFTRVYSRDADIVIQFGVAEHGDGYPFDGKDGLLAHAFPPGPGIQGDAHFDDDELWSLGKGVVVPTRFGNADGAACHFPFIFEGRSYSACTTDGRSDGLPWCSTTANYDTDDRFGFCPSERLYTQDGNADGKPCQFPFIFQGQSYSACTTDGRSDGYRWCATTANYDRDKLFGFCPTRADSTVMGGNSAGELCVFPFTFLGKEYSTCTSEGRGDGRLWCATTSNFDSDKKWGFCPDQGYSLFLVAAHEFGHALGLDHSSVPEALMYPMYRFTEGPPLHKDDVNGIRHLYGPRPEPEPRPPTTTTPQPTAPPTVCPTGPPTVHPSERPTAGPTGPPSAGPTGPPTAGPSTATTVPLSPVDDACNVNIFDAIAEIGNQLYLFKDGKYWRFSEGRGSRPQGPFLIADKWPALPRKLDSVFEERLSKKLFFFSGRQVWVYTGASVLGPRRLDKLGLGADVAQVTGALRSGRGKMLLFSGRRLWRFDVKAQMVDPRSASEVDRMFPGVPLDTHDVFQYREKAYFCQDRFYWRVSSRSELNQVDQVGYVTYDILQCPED
Source text: In contrast all three chemically-modified curcumins at 100 μm final concentration inhibited gelatinase activity by 68-100% (FIG. 6 and Table 6).

- Effect on p38 MAP kinase activation [1]: little/no effect
- MMP-8 level in skin extracts (collagenase-2 (MMP-8)): A similar pattern was observed
- MMP-9 level in gingiva (MMP-9): reduced MMP-9 to the undetectable levels
- inhibition at 100 µM [6]: 72%
Structure (SMILES): COC(=O)C(C(=O)/C=C/c1ccc(O)c(OC)c1)C(=O)/C=C/c1ccc(O)c(OC)c1 [Compound 1, 1,7-Bis(4-hydroxy-3-methoxyphenyl)-4-methoxycarbonylhepta-1E,6E-dien-3,5-dione]
- Pro- and activated-forms of MMP-2 in gingiva (MMP-2): neither diabetes nor compound 1 appeared to have a detectable effect
- inhibition at 2 µM (IL-1β; 2 uM): 41%
- inhibition at 25 µM (IL-1β; 25 uM): 100%
- inhibition at 50 µM (IL-1β; 50 uM): 100%
- inhibition at 2 µM (IL-6; 2 uM): 30%
- inhibition at 25 µM (IL-6; 25 uM): 100%
- inhibition at 50 µM (IL-6; 50 uM): 100%
- Effect on doxorubicin mediated caspase-3 activity (caspase-3 activity): None of the MMP inhibitors, including compound 1, negatively modulate caspase-3 activity
- TNFα level in LPS-challenged human monocytes, Luminex multiplex (TNF-α; 2 μM, FIG. 2): potent in reducing
- inhibition at 2 µM (TNF-α; Homo sapiens, Monocyte, 18 h, 2 uM, read-out: % Inhibition of TNF-α produced by stimulated Monocytes with LPS @ 18 h): 63%
- inhibition at 25 µM (TNF-α; Homo sapiens, Monocyte, 18 h, 25 uM, read-out: % Inhibition of TNF-α produced by stimulated Monocytes with LPS @ 18 h): 100%
- inhibition at 50 µM (TNF-α; Homo sapiens, Monocyte, 18 h, 50 uM, read-out: % Inhibition of TNF-α produced by stimulated Monocytes with LPS @ 18 h): 100%
- Cytotoxicity Monocytes @ 5 h incubation (human monocytes; 2 uM): 2 uM - 0%
- Cytotoxicity Monocytes @ 5 h incubation (human monocytes; 10 uM): 10 uM - 0%
- Cytotoxicity Monocytes @ 5 h incubation (human monocytes; 25 uM): 25 uM - 33%
- Cytotoxicity Monocytes @ 18 h incubation (human monocytes; 25 uM): 25 uM - 45.5%
- Cytotoxicity Monocytes @ 18 h incubation (human monocytes; 50 uM): 50 uM - 53%
- Plasma MMP-9 level [2]: reduced the excessive levels of MMPs to essentially normal levels
- Severity of hyperglycemia (serum glucose) ([3]; 100 mg/kg oral once/day, 7 days): no effect on the severity of hyperglycemia
- Description of AEs ([3]; n = 6, 1 week oral treatment): Minor inflamed
- Incidence of Adverse Events (AEs) ([3]; n = 6, 1 week oral treatment): 1/6
- concentration at 7 days ([3]; male, Sprague-Dawley, rat, serum, 100 mg/kg, 1 week oral treatment, FIG. 7): ~100 ng/mL
- Solubility [4]: improved solubility; also recorded: more soluble than the insoluble natural product curcumin
- LDH release [5]: less dramatic effect
- MCP-1 level in LPS-challenged human monocytes, Luminex multiplex (MCP-1; 2 μM, FIG. 2): potent in reducing
- inhibition at 2 µM (MCP-1; Homo sapiens, Monocyte, 18 h, 2 uM, read-out: % Inhibition of MCP-1 produced by stimulated Monocytes with LPS @ 18 h): 74%
- inhibition at 25 µM (MCP-1; Homo sapiens, Monocyte, 18 h, 25 uM, read-out: % Inhibition of MCP-1 produced by stimulated Monocytes with LPS @ 18 h): 78%
- inhibition at 50 µM (MCP-1; Homo sapiens, Monocyte, 18 h, 50 uM, read-out: % Inhibition of MCP-1 produced by stimulated Monocytes with LPS @ 18 h): 79%
